Cn1cc[n+](CCC[n+]2ccn(C)c2)c1.F[P-](F)(F)(F)(F)F.F[P-](F)(F)(F)(F)F
Settings | solubility (mole fraction)
in 2-butanone, 290.15 K | 0.00292
in 2-butanone, 294.15 K | 0.00339
in 2-butanone, 299.35 K | 0.00404
in 2-butanone, 303.15 K | 0.00458
in 2-butanone, 308.15 K | 0.00524
in 2-butanone, 313.25 K | 0.00598
in 2-butanone, 318.15 K | 0.00671
in 2-butanone, 323.15 K | 0.00738
in 2-butanone, 328.15 K | 0.00811
in 2-butanone, 335.25 K | 0.00913
in acetone, 289.15 K | 0.0365
in acetone, 293.15 K | 0.0401
in acetone, 296.65 K | 0.0433
in acetone, 301.15 K | 0.0485
in acetone, 306.15 K | 0.0551
in acetone, 310.15 K | 0.0605
in acetone, 315.15 K | 0.0681
in acetone, 321.15 K | 0.0772
in acetophenone, 289.15 K | 0.000417
in acetophenone, 293.15 K | 0.000461
in acetophenone, 296.65 K | 0.0005
in acetophenone, 302.15 K | 0.00056
in acetophenone, 307.15 K | 0.000619
in acetophenone, 312.15 K | 0.000683
in acetophenone, 317.35 K | 0.000743
in acetophenone, 321.65 K | 0.000807
in acetophenone, 328.15 K | 0.000899
in acetophenone, 333.15 K | 0.000996
in acetylacetone, 288.55 K | 0.000598
in acetylacetone, 293.15 K | 0.000876
in acetylacetone, 297.45 K | 0.0012
in acetylacetone, 302.65 K | 0.00172
in acetylacetone, 307.85 K | 0.00241
in acetylacetone, 313.15 K | 0.00325
in acetylacetone, 317.65 K | 0.00411
in acetylacetone, 323.15 K | 0.00532
in acetylacetone, 327.35 K | 0.00639
in acetylacetone, 334.65 K | 0.0084
in cyclohexanone, 289.65 K | 0.000151
in cyclohexanone, 294.15 K | 0.000222
in cyclohexanone, 299.15 K | 0.000331
in cyclohexanone, 303.15 K | 0.000443
in cyclohexanone, 308.15 K | 0.000622
in cyclohexanone, 313.25 K | 0.000852
in cyclohexanone, 318.15 K | 0.00112
in cyclohexanone, 323.15 K | 0.00143
in cyclohexanone, 328.15 K | 0.00181
in cyclohexanone, 333.15 K | 0.00224
in water, 289.15 K | 7.7e-05
in water, 293.15 K | 0.000102
in water, 297.65 K | 0.000137
in water, 304.75 K | 0.000216
in water, 309.35 K | 0.000289
in water, 313.25 K | 0.000366
in water, 317.15 K | 0.000454
in water, 322.65 K | 0.000611
in water, 327.15 K | 0.00078
in water, 332.65 K | 0.00104

Reference: BigSolDB 2.1
